Measurements from paper PMC3292467, “Comparison between ^68Ga-bombesin (^68Ga-BZH3) and the cRGD tetramer ^68Ga-RGD4 studies in an experimental nude rat model with a neuroendocrine pancreatic tumor cell line” (EJNMMI Research, 2011).
“Also recorded” adds a separate entry of the source. Read-outs that look alike come from different tables or passages of the source. Square brackets hold non-standard residues; d marks the D form. Peptide text beside a SMILES is read from it. * marks the point of attachment. DOTA = O=C(O)CN1CCN(CC(=O)O)CCN(CC(=O)*)CCN(CC(=O)O)CC1; 2Thi = N[C@@H](Cc1cccs1)C(=O)O; Nle = CCCC[C@H](N)C(=O)O; AEEA = NCCOCCOCC(=O)O; βAla = NCCC(=O)O

Assays:
[1] = system: gliomas; conditions: compared with ^68Ga-DOTATOC in meningiomas, ref [47]; cited from earlier work
Description: Concerning the ^68Ga-BZH3 kinetics, k1 is a parameter that reflects the receptor binding and k3 is a parameter that reflects the internalization of the tracer.

[2] = 3D fused PET-CT images; male rat
Experimental: The study included nine AR 42 J tumor-bearing nude rats. We grouped all rats according to PET tracers (B, ^68Ga-BZH3 and R, ^68Ga-RGD4), used in dynamic PET scanning, as noted in Table 1. Dynamic PET studies were performed for 60 min after the intravenous application of 10 to 30 MBq ^68Ga-RGD4 or 20 to 40 MBq ^68Ga-BZH3, using a 28-frame protocol (ten frames of 30 s, five frames of 60 s, five frames of 120 s, and eight frames of 300 s). Two animals can be examined in parallel per scanning by a homemade injector (Figure 2). A dedicated PET-CT system (Biograph™ mCT, 128 S/X, Siemens Co, Erlangen, Germany) with an axial field of view of 21.6 cm with TrueV, operated in a three-dimensional mode, was used for all animal studies. The system provides the simultaneous acquisition of 369 transverse slices with a slice thickness of 0.6 mm. The animals were positioned in the axial plane of the system to maintain the best resolution in the center of the system. […] The SUV images were used for all further quantitative evaluations.
Dynamic PET data were evaluated using the software package PMOD (provided courtesy of PMOD Technologies Ltd., Zuerich, Switzerland). Areas with enhanced tracer uptake on transaxial, coronal, and sagittal images were evaluated visually. […] A detailed quantitative evaluation of tracer kinetics requires the use of compartmental modeling. […]

[3] = system: AR42J tumor; conditions: for VB (vessel density, fractional blood volume) / K1 (transport into the cell; associated with receptor binding) / RBP (receptor binding potential) / k2 (displacement from the receptor) / k3 (cellular internalisation) / k4 (externalization): AR42J tumor-bearing nude rats, n = 5 (BZH3), n = 4 (RGD4); for VB (vessel density, fractional blood volume): dynamic PET 60 min, i.v.
Experimental: The AR42J cell line, derived from a rat exocrine pancreas neuroendocrine tumor, was used. Cells were obtained from the European Collection of Cell Cultures and were grown in RPMI 1640 medium supplemented with 2 mmol/L glutamine and 10% fetal calf serum. Adherent cells were dislodged with trypsin/ethylenediaminetetraacetic acid (0.02%: 0.05%, w/v). For PET-studies, 5 × 10^6 cells in 200 μl RPMI without supplements were inoculated subcutaneously in the right hind leg of Wistar rats.
The study included nine AR 42 J tumor-bearing nude rats. We grouped all rats according to PET tracers (B, ^68Ga-BZH3 and R, ^68Ga-RGD4), used in dynamic PET scanning, as noted in Table 1. Dynamic PET studies were performed for 60 min after the intravenous application of 10 to 30 MBq ^68Ga-RGD4 or 20 to 40 MBq ^68Ga-BZH3, using a 28-frame protocol (ten frames of 30 s, five frames of 60 s, five frames of 120 s, and eight frames of 300 s). Two animals can be examined in parallel per scanning by a homemade injector (Figure 2). A dedicated PET-CT system (Biograph™ mCT, 128 S/X, Siemens Co, Erlangen, Germany) with an axial field of view of 21.6 cm with TrueV, operated in a three-dimensional mode, was used for all animal studies. The system provides the simultaneous acquisition of 369 transverse slices with a slice thickness of 0.6 mm. The animals were positioned in the axial plane of the system to maintain the best resolution in the center of the system. All PET images were attenuation-corrected and an image matrix of 400 × 400 pixels was used for iterative image reconstruction (voxel size 1.565 × 1.565 × 0.6 mm) based on the syngo MI PET/CT 2009C software version. After the end of the dynamic series an ultrahigh resolution CT with 85 mA, 80 kV and a pitch of 0.85 cm was performed for attenuation correction of the acquired dynamic emission data. The reconstructed images were converted to SUV images based on the formula [24]: SUV = Tissue concentration (becquerel per gram)/[injected dose ([…]))/body weight (gram)]. The SUV 55 to 60 min post-injection was used for the assessment of both tracers. The SUV images were used for all further quantitative evaluations.
Dynamic PET data were evaluated using the software package PMOD (provided courtesy of PMOD Technologies Ltd., Zuerich, Switzerland). Areas with enhanced tracer uptake on transaxial, coronal, and sagittal images were evaluated visually. A volume of interest consists of several regions of interest over the target area. Irregular regions of interest were drawn manually. A detailed quantitative evaluation of tracer kinetics requires the use of compartmental modeling. A two-tissue-compartment model was used to evaluate the dynamic studies.
In animals, a partial volume correction must be applied to the data due to the small size of the input and tumor volumes of interest (VOIs). Herein, the recovery coefficient was 0.85 for a diameter of 8 mm and 0.32 for a diameter of 3 mm based on phantom measurements as well as the recent parameter settings used with the reconstruction software. For the input function the mean values of the VOI data obtained from the heart were used. We used a preprocessing tool, which allowed a fit of the input curve by a sum of up to three decaying exponentials. The learning-machine two-tissue-compartment model was used for the fitting and provided five parameters: the transport parameters for tracer into and out of the cell, K1 and k2, the parameters for phosphorylation and dephosphorylation of intracellular tracer, k3 and k4, and the fractional blood volume, also called vessel density (VB), which reflects the amount of blood in the VOI. Following compartment analysis, we calculated the global influx of tracer from the compartment data using the formula: influx = (K1 × k3)/(k2 + k3). […] The model parameters were accepted when K1 - k4 was less than 1 and VB exceeded 0. The unit for the rate constants K1 to k4 was 1/min.

[4] = system: AR42J tumor; assay: Dynamic PET, tumor uptake (SUV) in AR42J tumor-bearing nude rats; format: in vivo, rat; conditions: for SUV (standardized uptake value) in tumor: 55 to 60 min post-injection, i.v. 20 to 40 MBq (BZH3, n = 5), 10 to 30 MBq (RGD4, n = 4), nude rats
Description: (§1) Irregular regions of interest were drawn manually.

[5] = as above; format: in vivo, rat; conditions: rat, in vivo, iv, i.v. 20 to 40 MBq (BZH3, n = 5), 10 to 30 MBq (RGD4, n = 4), nude rats, read-out: SUV (standardized uptake value) in tumor
Description: as §1

[6] = system: gastrointestinal stromal tumors; conditions: ref [15], cited from earlier work
Description: Bombesin and the two mammalian bombesin-like peptides, […] regulate many biologic response processes through activation of distinct receptor subtypes, including modulation of smooth muscle contraction, secretion of neuropeptides and hormones, as well as stimulation of cell growth. Activation of neuromedin B (BB1) receptors has been reported in various human cancers.

[7] = system: bombesin receptor subtype (BB3); conditions: background statement; no reference given; cited from earlier work
Description: (§2) Objectives Receptor scintigraphy gains more interest for diagnosis and treatment of tumors, in particular for neuroendocrine tumors (NET). We used a pan-Bombesin analog, the peptide DOTA-PEG2-[D-tyr^6, β-Ala^11, Thi^13, Nle^14] BN(6-14) amide (BZH3). BZH3 binds to at least three receptor subtypes: the BB1 (Neuromedin B), BB2 (Gastrin-releasing peptide, GRP), and BB3. Imaging of ανβ3 integrin expression playing an important role in angiogenesis and metastasis was accomplished with a ^68Ga-RGD tetramer. […] We have reported ^68Ga-labeled bombesin may be helpful for diagnostic reasons in a subgroup of patients ...

[8] = system: gastrin-releasing peptide receptor (GRP-r, also known as BB2); conditions: background statement; no reference given; cited from earlier work
Description: as §2

[9] = system: BB1 (Neuromedin B); conditions: background statement; no reference given; cited from earlier work
Description: as §2

[10] = median, between tracers P 0.05*

CCCC[C@H](NC(=O)[C@H](Cc1cccs1)NC(=O)[C@H](Cc1c[nH]cn1)NC(=O)CCNC(=O)[C@@H](NC(=O)[C@H](C)NC(=O)[C@H](Cc1c[nH]c2ccccc12)NC(=O)[C@H](CCC(N)=O)NC(=O)[C@@H](Cc1ccc(O)cc1)NC(=O)COCCOCCNC(=O)COCCOCCNC(=O)CN1CCN(CC(=O)O)CCN(CC(=O)O)CCN(CC(=O)O)CC1)C(C)C)C(N)=O [^68Ga-BZH3, DOTA-PEG2-[D-Tyr^6 -β-Ala^11 -Thi^13 -Nle^14]BN(6-14) amide, metal not drawn] ({DOTA-AEEA-AEEA}-[dY]QWAV[βAla]H[2Thi][Nle]-NH2)
internalization [1]: higher internalization | receptor binding [1]: lower receptor binding | tracer uptake in other sites [2]: liver, kidney, urinary bladder, and testicles | FD, VB, K1 and RBP compared between tracers ([3]; ^68Ga-BZH3 vs ^68Ga-RGD tetramer): generally higher than the corresponding values for the ^68Ga-RGD tetramer | VB (vessel density, fractional blood volume) ([3]; maximum): 0.1646 | K1 (transport into the cell; associated with receptor binding) ([3]; maximum): 0.4862 min⁻¹ | RBP (receptor binding potential) ([3]; maximum): 0.1202 | k2 (displacement from the receptor) ([3]; maximum): 0.6103 min⁻¹ | k3 (cellular internalisation) ([3]; maximum): 0.2005 min⁻¹ | k4 (externalization) ([3]; maximum): 0.1746 min⁻¹ | VB (vessel density, fractional blood volume) ([3]; mean): 0.1037 | K1 (transport into the cell; associated with receptor binding) ([3]; mean): 0.3717 min⁻¹ | RBP (receptor binding potential) ([3]; mean): 0.0765 | k2 (displacement from the receptor) ([3]; mean): 0.4808 min⁻¹ | k3 (cellular internalisation) ([3]; mean): 0.1235 min⁻¹ | k4 (externalization) ([3]; mean): 0.0986 min⁻¹ | VB (vessel density, fractional blood volume) [3, 10]: 0.0903 | RBP (receptor binding potential) ([3]; median, between tracers P 0.0275*): 0.0607 | K1 (transport into the cell; associated with receptor binding) [3, 10]: 0.3506 min⁻¹ | k4 (externalization) [3, 10]: 0.1005 min⁻¹ | k2 (displacement from the receptor) ([3]; median, between tracers P 0.4624): 0.5216 min⁻¹ | k3 (cellular internalisation) ([3]; median, between tracers P 0.8065): 0.1177 min⁻¹ | VB (vessel density, fractional blood volume) ([3]; minimum): 0.0603 | K1 (transport into the cell; associated with receptor binding) ([3]; minimum): 0.3055 min⁻¹ | RBP (receptor binding potential) ([3]; minimum): 0.0506 | k2 (displacement from the receptor) ([3]; minimum): 0.2768 min⁻¹ | k3 (cellular internalisation) ([3]; minimum): 0.0580 min⁻¹ | k4 (externalization) ([3]; minimum): 0.0493 min⁻¹ | tumor visualisation ([4]; 3D fused PET-CT image, tumor in lower leg): clearly showed enhanced ^68Ga-BZH3 uptake in the tumor area in the lower leg | tumor uptake compared with the other tracer ([4]; ^68Ga-BZH3 vs ^68Ga-RGD4, AR42J tumor-bearing nude rats): generally higher than ^68Ga-RGD4 uptake; also recorded: higher than that of ^68Ga-RGD4 | SUV (standardized uptake value) in tumor ([4]; maximum): 1.2884 | SUV (standardized uptake value) in tumor ([4]; minimum): 0.8628 | SUV ([5]; mean, 55 to 60 min post-injection): 1.08 SUV | SUV ([5]; median, 55 (56) to 60 min post-injection, between tracers P 0.8065): 1.19 SUV | uptake compared with ^18F-FDG [6]: lower than ^18F-FDG | uptake in gastrointestinal stromal tumors ([6]; subgroup of patients): enhanced ^68Ga-BZH3 uptake in a subgroup of patients with gastrointestinal stromal tumors

Bombesin [reference compound]
binding/affinity for BB3 [7]: high affinity | binding/affinity for BB2 [8]: high affinity | binding/affinity for BB1 [9]: high affinity

DOTA-PEG2-[D-Tyr^6 -β-Ala^11 -Thi^13 -Nle^14 ]BN(6-14) amide [BZH3, pan-Bombesin analog, unlabelled precursor]
binding/affinity for BB3 [7]: binds | binding/affinity for BB2 [8]: binds | binding/affinity for BB1 [9]: binds
